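Cells were grown in 96-well plates and exposed to each compound for 48 hours at five concentrations; endpoints were interpolated linearly between bracketing concentrations, or set to the highest concentration if not reached. The concentration for full growth arrest is given as TGI.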
Tests used:
Assay in all cases: NCI anticancer screen, dose series, 48 h
786-0 renal = test system: 786-0 renal
A498 renal = test system: A498 renal
A549 NSCLC = test system: A549 NSCLC
ACHN renal = test system: ACHN renal
CAKI-1 renal = test system: CAKI-1 renal
CCRF-CEM leukemia = test system: CCRF-CEM leukemia
COLO 205 colon = test system: COLO 205 colon
DLD-1 colon = test system: DLD-1 colon
DMS 114 small cell lung = test system: DMS 114 small cell lung
DMS 273 small cell lung = test system: DMS 273 small cell lung
EKVX NSCLC = test system: EKVX NSCLC
HCT-116 colon = test system: HCT-116 colon
HCT-15 colon = test system: HCT-15 colon
HL-60(TB) leukemia = test system: HL-60(TB) leukemia
HOP-62 NSCLC = test system: HOP-62 NSCLC
HOP-92 NSCLC = test system: HOP-92 NSCLC
HT29 colon = test system: HT29 colon
IGROV1 ovarian = test system: IGROV1 ovarian
K-562 leukemia = test system: K-562 leukemia
KM20L2 colon = test system: KM20L2 colon
LOX IMVI melanoma = test system: LOX IMVI melanoma
LXFL 529 NSCLC = test system: LXFL 529 NSCLC
M14 melanoma = test system: M14 melanoma
M19-MEL melanoma = test system: M19-MEL melanoma
MALME-3M melanoma = test system: MALME-3M melanoma
MOLT-4 leukemia = test system: MOLT-4 leukemia
NCI-H226 lung = test system: NCI-H226 lung
NCI-H23 lung = test system: NCI-H23 lung
NCI-H460 lung = test system: NCI-H460 lung
NCI-H522 lung = test system: NCI-H522 lung
OVCAR-3 ovarian = test system: OVCAR-3 ovarian
OVCAR-4 ovarian = test system: OVCAR-4 ovarian
OVCAR-5 ovarian = test system: OVCAR-5 ovarian
OVCAR-8 ovarian = test system: OVCAR-8 ovarian
SF-268 CNS = test system: SF-268 CNS
SF-295 CNS = test system: SF-295 CNS
SF-539 CNS = test system: SF-539 CNS
SK-MEL-2 melanoma = test system: SK-MEL-2 melanoma
SK-MEL-28 melanoma = test system: SK-MEL-28 melanoma
SK-MEL-5 melanoma = test system: SK-MEL-5 melanoma
SK-OV-3 ovarian = test system: SK-OV-3 ovarian
SN12C renal = test system: SN12C renal
SNB-19 CNS = test system: SNB-19 CNS
SNB-75 CNS = test system: SNB-75 CNS
SNB-78 CNS = test system: SNB-78 CNS
SW-620 colon = test system: SW-620 colon
TK-10 renal = test system: TK-10 renal
U251 CNS = test system: U251 CNS
UACC-257 melanoma = test system: UACC-257 melanoma
UACC-62 melanoma = test system: UACC-62 melanoma
UO-31 renal = test system: UO-31 renal
XF 498 CNS = test system: XF 498 CNS
HCC-2998 colon = test system: HCC-2998 colon
KM12 colon = test system: KM12 colon
RPMI-8226 leukemia = test system: RPMI-8226 leukemia
RXF 393 renal = test system: RXF 393 renal

Measured: TGI

N#C/C(c1nc2ccccc2[nH]1)=c1\s/c(=C(/N)O)c(=N)n1-c1ccccc1
> 100 µM: 786-0 renal | A498 renal | A549 NSCLC | ACHN renal | CAKI-1 renal | CCRF-CEM leukemia | COLO 205 colon | DLD-1 colon | DMS 114 small cell lung | DMS 273 small cell lung | EKVX NSCLC | HCT-116 colon | HCT-15 colon | HL-60(TB) leukemia | HOP-62 NSCLC | HOP-92 NSCLC | HT29 colon | IGROV1 ovarian | K-562 leukemia | KM20L2 colon | LOX IMVI melanoma | LXFL 529 NSCLC | M14 melanoma | M19-MEL melanoma | MALME-3M melanoma | MOLT-4 leukemia | NCI-H226 lung | NCI-H23 lung | NCI-H460 lung | NCI-H522 lung | OVCAR-3 ovarian | OVCAR-4 ovarian | OVCAR-5 ovarian | OVCAR-8 ovarian | SF-268 CNS | SF-295 CNS | SF-539 CNS | SK-MEL-2 melanoma | SK-MEL-28 melanoma | SK-MEL-5 melanoma | SK-OV-3 ovarian | SN12C renal | SNB-19 CNS | SNB-75 CNS | SNB-78 CNS | SW-620 colon | TK-10 renal | U251 CNS | UACC-257 melanoma | UACC-62 melanoma | UO-31 renal | XF 498 CNS

CC(C)(C)OP(=O)(OC(C)(C)C)C(O)c1ccc(/C=C(\C#N)C(N)=O)cc1 (configuration not stated)
> 100 µM: 786-0 renal | A498 renal | A549 NSCLC | ACHN renal | CAKI-1 renal | CCRF-CEM leukemia | COLO 205 colon | DLD-1 colon | DMS 114 small cell lung | DMS 273 small cell lung | EKVX NSCLC | HCC-2998 colon | HCT-116 colon | HCT-15 colon | HL-60(TB) leukemia | HOP-62 NSCLC | HOP-92 NSCLC | HT29 colon | IGROV1 ovarian | K-562 leukemia | KM12 colon | KM20L2 colon | LOX IMVI melanoma | LXFL 529 NSCLC | M14 melanoma | M19-MEL melanoma | MALME-3M melanoma | MOLT-4 leukemia | NCI-H226 lung | NCI-H23 lung | NCI-H460 lung | NCI-H522 lung | OVCAR-3 ovarian | OVCAR-4 ovarian | OVCAR-5 ovarian | OVCAR-8 ovarian | RPMI-8226 leukemia | RXF 393 renal | SF-268 CNS | SF-295 CNS | SF-539 CNS | SK-MEL-2 melanoma | SK-MEL-28 melanoma | SK-OV-3 ovarian | SN12C renal | SNB-19 CNS | SNB-75 CNS | SNB-78 CNS | SW-620 colon | TK-10 renal | U251 CNS | UACC-257 melanoma | UACC-62 melanoma | UO-31 renal | XF 498 CNS

— PubChem BioAssay (NCI)
